Results: a melting point compilation (Tetko et al.; mined from patent text by program, amines drawn as free bases though some values may be those of a salt)

Row | SMILES | melting point [°C]
1 | COc1ccc(-c2ccc(CC3CC=CC3)cc2)cc1 | 75 to 77
2 | CN(C)c1cc(CO)ncc1F | 80 to 82
3 | COC(CNC(=O)N(N=Cc1ccccc1)c1cc(Cl)c(C(C#N)c2ccc(Cl)cc2)c(Cl)c1)OC (centres undefined) | 190 to 191
4 | CC1(C)CC1C(=O)NC(=CCCC(=O)O)C(=O)O (centres undefined) | 163 to 165
5 | Cc1ccc(Sc2c(N)cc(C(=O)O)cc2SCc2ccccc2)cc1 | 177 to 179
6 | COc1ccc(S(=O)(=O)n2ccc3ccnc(-c4ccco4)c32)cc1 | 127 to 130
7 | OC(c1ccc(Cl)cc1)(c1ccc(Cl)cc1)C1CCNCC1 | 184 to 188
8 | CS(=O)(=O)N(CCI)N(S(C)(=O)=O)S(C)(=O)=O | 136 to 138
9 | CSCCC(=N)NS(N)(=O)=O | 88 to 91
10 | COC(=O)c1sc2c(c1N)c1ccccc1c(=O)n2-c1ccccc1 | > 270
11 | CC(C)[C@H](O)[C@@H](CCCCOc1ccc(Cl)cc1Cl)n1nc[nH]c1=S (racemic) | 118
12 | CS(=O)(=O)c1ccc(C(=O)C(=CO)C(=O)C2CC2)c(Cl)c1-c1nccs1 | 176
13 | OC(CNC1CC1)c1cccc(Br)c1 (centres undefined) | 69.5 to 70.4
14 | Cc1ccc(-c2ncc(N(CCCCOCC(=O)O)C(C)C)nc2-c2ccc(C)cc2)cc1 | 155 to 156
15 | CC(=O)Oc1ccc(C(=O)Oc2ccc(C(=O)O)cc2)cc1 | 98 to 100
16 | CC[C@@]12C[C@@](C)(O)[C@](O)(c3ccccc3)C[C@H]1CCc1cc(OCc3nnn[nH]3)ccc12 | 108 to 110
17 | Nc1noc(-c2cc3c(Oc4ccc(Cl)cc4)cncc3s2)n1 | 217 to 219

Results, then the compound that gave them:

Row | melting point [°C] | SMILES
18 | 131 to 132 | COc1ccc2c(c1)C(NC(=NC#N)SC)CCC2 (centres undefined)
19 | 104 | CC(C)(C)OC(=O)N1CCO[C@@H](c2ccc(C#N)cc2)C1
20 | 93.5 to 94.5 | Cc1noc(Cc2ccccc2Nc2c(Cl)cccc2Cl)n1
21 | 269 to 271 | CO[C@@H](C)CNC(=O)c1c[nH]c2ncc(-c3nn(C)c4cc(F)ccc34)nc12
22 | 149 to 151 | CC(C)(C)c1cc(CCc2ccccc2NC(=O)N2CCN(Cc3ccc4c(c3)OCO4)CC2)cc(C(C)(C)C)c1O
23 | 250 to 251 | Cc1ccnc2c1C(=NNC(=N)N)CC(c1cc(Cl)sc1Cl)C2 (centres undefined)
24 | 171 to 172 | O=C(O)COc1cccc2c1CCc1sc(SCC=Cc3ccccc3)nc1-2
25 | 187 to 190 | CCOc1ccc(C(=O)N2CC(C(=O)OC)N(S(=O)(=O)c3ccc(OC)cc3)Cc3ccccc32)cc1 (centres undefined)
26 | > 320 | O=C1c2[nH]c3cc(-c4ccccc4)nn3c(=O)c2CCN1C1CCCCC1
27 | 226 to 227 | CC(C)C1(C)NC(c2nc3ccccc3cc2C=O)=NC1=O (centres undefined)
28 | 104 to 106 | COc1ccc(C(=O)CCCCCN2CCC(CNC(=O)c3cc(Cl)c(N)cc3OC)CC2)cc1Cl
29 | 131 to 133 | CCCCc1ccc2nnc(C(=O)O)cc2c1
30 | 210 to 212 | COc1ccc(NC(=O)c2ccc(-c3ccc(S(C)=O)cc3)c(C)c2)cc1N1CCN(C)CC1 (centres undefined)
31 | 262 to 265 | CCOC(=O)[C@H](Cc1ccc(-c2c(C)n(C)c(=O)n(C)c2=O)cc1)NC(=O)c1c(Cl)cccc1Cl
32 | 182 to 183 | CC1(C)CCOc2c(CC#Cc3ccc(C(=O)O)c(O)c3)cccc21
33 | 261 to 262 | CCc1nc2cccc(C(=O)O)c2n1Cc1ccc(-c2ccccc2-c2nnn[nH]2)cc1
34 | 77 to 81 | COC12C=CC(CC1)CC2C(=O)O (centres undefined)
35 | 130 to 131 | O=C(NCCN1CCN(C(c2ccccc2)c2cccnc2)CC1)C1CSC(c2cccnc2)N1 (centres undefined)
36 | 185 to 190 | COc1cc2[nH]cc(C(=O)C(Cl)(Cl)Cl)c2cc1Br
37 | 141 to 142 | CC(C)(C)c1cc(OCCCCc2nnn[nH]2)cc(C(C)(C)C)c1O
38 | 154 | O=C(O)C(=NO)C(c1ccc(OCc2ccccn2)cc1)c1ccc(OCc2ccccn2)cc1
39 | 203 to 204 | CNS(=O)(=O)c1ccc(-c2coc3ccc(-c4nnc(C)o4)cc23)cc1
